The values below come from patent publication US10745410B2, “Substituted [5,6]cyclic-4(3H)-pyrimidinones as anticancer agents” (ZENJI RESEARCH LABORATORIES, priority 2017, dated 2020).

For test [1], the target named is CDC7/DBF4 (Homo sapiens (Human), UniProt O00311). Put plainly: CDC7 biochemical assay (ADP-Glo, MCM2 substrate). Conditions: ATP 500 uM; MCM2 400 ug/ml; CDC7/DBF4 200 nM; 180 mins at 27° C.; read-out: CDC7 enzyme IC50 (nm). The procedure:
Biochemical Assay Method N-terminal GST-tagged CDC7 and DBF4 full-length proteins were co-expressed by baculovirus insect expression (BV) system and purified by GST affinity column. Used MCM2 protein as substrate, N-terminal His tag MCM2 was expressed by E. coli and purified by His affinity column. Biochemical assay was tested in the U-shaped bottom 384 plate (corning, #4514) with a final volume of […] at 27° C. The concentration of CDC7 was optimized by the enzyme titration experiment. CDC7 kinase was diluted in assay buffer (40 mM Tris.HCl pH 7.25, 100 ug/mL BSA, and 20 mM MgCl2) to get 2.4× enzyme solutions. Compounds were dissolved in 10 mM DMSO, and series diluted in DMSO from 0.3 mM to 0.3 nM (5 concentration pts); All dilutions were diluted 30× in assay buffer to get 6× compounds solutions. MCM2 Substrate and ATP were diluted to 2.4× mixed solution. Add 2 ul test compound solution to 384 assay plate, then add 5 ul substrate/ATP mixed solution, at last add 5 ul enzyme solution, incubate at 27° C. for 180 mins. Transfer 5 ul reaction solution to another 384 assay plate, then add 5 ul ADP-Glo™ Reagent (Promega) to each well and incubate at 27° C. for 40 mins; Add 10 ul Kinase Detection Reagent (Promega) to each well and incubate at 27° C. for 30 mins. 10 uM CDC7-3 compound was used as 100% inhibition while 100% DMSO control was used as 0% inhibition. Each test has three replications at least. The final concentration of the reagents: ATP was 500 uM; MCM2 was 400 ug/ml; CDC7/DBF4 was 200 nM. The data were obtained by TECAN F200 and calculated by GraphPad Prism 5.0; IC50 values were adjusted by Dose-response-Inhibition-Variable slope model.

Test [2] concerns COLO 205 cell line. Put plainly: Proliferation experiment in COLO 205 cell line (CellTiter-Glo). Format: cell-based. Conditions: Homo sapiens, COLO 205 cells, 72 hours. How it is done: Proliferation experiment in COLO 205 cell line Tissue Culture. Cells were maintained in 10% FBS (Gibco #10099141)/RPMI 1640 (Gibco # A10491). The cells were harvested with 0.25% Trypsin/EDTA (Amresco #9002077), re-suspended in 10% FBS/RPMI 1640 and plated at 8,000 cells per well in 90 ul of media in a 96-well black plate with clear bottoms (Corning #3603). The cells were allowed to incubate overnight in a 37° C., 5% CO2 humidified tissue culture incubator. A 10-point test compound curve was prepared by serial diluting a 10 mM stock 1:3 in DMSO in a 384-well compound plate (costar #3656). The serial diluted compounds were transferred to the plate containing medium for further dilution. The final concentration was from 10 uM to 0.000508 uM. The serial diluted compounds were transferred to the plate containing cells by using a volley ([…]) and the cells were placed back in the incubator for 72 hours. Luminescent detection was carried out with CellTiter-Glo® Luminescent Cell Viability Assay (promega # G7572). Signal was read on TECAN Infinite F200.

Structures are written as SMILES. Counter-ions that a name gives are not always drawn.

Chain of CDC7/DBF4 (O00311 whole entry): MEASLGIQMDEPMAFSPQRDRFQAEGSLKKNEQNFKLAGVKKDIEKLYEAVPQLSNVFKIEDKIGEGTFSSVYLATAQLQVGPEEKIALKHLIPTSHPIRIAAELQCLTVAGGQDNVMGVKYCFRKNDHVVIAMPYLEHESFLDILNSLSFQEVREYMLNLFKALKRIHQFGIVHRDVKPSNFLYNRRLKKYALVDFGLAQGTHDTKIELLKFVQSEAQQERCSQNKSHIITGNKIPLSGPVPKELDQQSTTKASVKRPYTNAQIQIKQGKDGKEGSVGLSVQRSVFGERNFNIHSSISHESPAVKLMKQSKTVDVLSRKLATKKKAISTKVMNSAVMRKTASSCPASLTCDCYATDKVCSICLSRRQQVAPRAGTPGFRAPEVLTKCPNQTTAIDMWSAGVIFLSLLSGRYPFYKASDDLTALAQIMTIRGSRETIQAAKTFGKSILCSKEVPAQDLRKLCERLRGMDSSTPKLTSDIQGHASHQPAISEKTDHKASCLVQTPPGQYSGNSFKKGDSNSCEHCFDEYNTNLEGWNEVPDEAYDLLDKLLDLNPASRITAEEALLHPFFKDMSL
Chain of CDC7/DBF4 (Q9UBU7 whole entry partner): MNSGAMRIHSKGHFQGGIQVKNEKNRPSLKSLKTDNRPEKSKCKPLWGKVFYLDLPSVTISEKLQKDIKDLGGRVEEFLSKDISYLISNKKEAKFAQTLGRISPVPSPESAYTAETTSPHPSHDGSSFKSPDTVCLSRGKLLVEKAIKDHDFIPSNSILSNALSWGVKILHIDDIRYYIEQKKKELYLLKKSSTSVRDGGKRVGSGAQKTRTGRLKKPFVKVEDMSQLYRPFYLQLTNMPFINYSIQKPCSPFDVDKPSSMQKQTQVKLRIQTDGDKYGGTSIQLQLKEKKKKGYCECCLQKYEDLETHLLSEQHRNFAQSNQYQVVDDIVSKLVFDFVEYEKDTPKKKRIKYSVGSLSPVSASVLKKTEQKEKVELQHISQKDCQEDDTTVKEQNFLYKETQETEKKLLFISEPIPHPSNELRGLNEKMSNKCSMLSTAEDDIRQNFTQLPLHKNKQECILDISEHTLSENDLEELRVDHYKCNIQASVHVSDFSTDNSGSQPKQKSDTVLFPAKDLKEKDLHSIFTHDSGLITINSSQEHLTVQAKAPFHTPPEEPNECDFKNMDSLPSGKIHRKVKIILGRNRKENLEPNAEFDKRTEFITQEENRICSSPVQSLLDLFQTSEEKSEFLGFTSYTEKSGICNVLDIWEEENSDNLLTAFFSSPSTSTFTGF

For `CC(C)(N)c1nc2cc(-c3ccnc(F)c3)sc2c(=O)[nH]1` [Compound 39, 2-(2-aminopropan-2-yl)-6-(2-fluoropyridin-4-yl)thieno[3,2-d]pyrimidin-4(3H)-one hydrochloride], in test [1], the IC50 lay in the range of 1000 to 10000 nM. This compound also registered a GI50 in test [2] of 1000 to 10000 nM.

`CC[C@H](N)c1nc2cc(-c3ccncc3F)sc2c(=O)[nH]1` [Compound 13b, (S)-2-(1-aminopropyl)-6-(3-fluoropyridin-4-yl)thieno[3,2-d]pyrimidin-4(3H)-one hydrochloride]: the IC50 in test [1] is under 100 nM. The compound also gave a GI50 in test [2] of under 100 nM.

On to `CC(C)[C@H](N)c1nc2cc(-c3c[nH]cn3)sc2c(=O)[nH]1` [Compound 45, (S)-2-(1-amino-2-methylpropyl)-6-(1H-imidazol-4-yl)thieno[3,2-d]pyrimidin-4(3H)-one hydrochloride], for which, in test [1], the half-maximal inhibitory concentration (IC50) is over 10000 nM. The same compound showed a GI50 in test [2] of over 10000 nM.

With `CC(C)[C@H](N)c1nc2cc(-c3cn[nH]n3)sc2c(=O)[nH]1` [Compound 58, (S)-2-(1-amino-2-methylpropyl)-6-(2H-1,2,3-triazol-4-yl)thieno[3,2-d]pyrimidin-4(3H)-one hydrochloride], the IC50 in test [1] fell in the range of 1000 to 10000 nM. Besides, in test [2], the concentration for 50% growth inhibition (GI50) lay within 1000 to 10000 nM.

On to `CC(C)[C@H](N)c1nc2cc(-c3ccnnc3)sc2c(=O)[nH]1` [Compound 49, (S)-2-(1-amino-2-methylpropyl)-6-(pyridazin-4-yl)thieno[3,2-d]pyrimidin-4(3H)-one hydrochloride], for which the IC50 in test [1] fell in the range of 1000 to 10000 nM. In test [2], this compound displayed a concentration for 50% growth inhibition (GI50) of 1000 to 10000 nM.

As for `CC(C)[C@H](N)c1nc2cc(-c3cc(F)ncc3F)sc2c(=O)[nH]1` [Compound 7d, (S)-2-(1-amino-2-methylpropyl)-6-(2,5-difluoropyridin-4-yl)thieno[3,2-d]pyrimidin-4(3H)-one hydrochloride], the IC50 in test [1] fell in the range of 100 to 1000 nM. In test [2], the GI50 was in the range of 100 to 1000 nM.

In test [2], `CC(C)[C@H](N)c1nc2cc(-c3ccnc(Cl)c3)sc2c(=O)[nH]1` [Compound 7a, (S)-2-(1-amino-2-methylpropyl)-6-(2-chloropyridin-4-yl)thieno[3,2-d]pyrimidin-4(3H)-one hydrochloride] displayed a GI50 of 1000 to 10000 nM.

Regarding `N[C@H](c1nc2cc(-c3ccncc3F)sc2c(=O)[nH]1)C1CC1` [Compound 25, (S)-2-(amino(cyclopropyl)methyl)-6-(3-fluoropyridin-4-yl)thieno[3,2-d]pyrimidin-4(3H)-one hydrochloride], the IC50 in test [1] is under 100 nM. This compound also yielded a GI50 in test [2] of under 100 nM.

On to `CC(C)[C@H](N)c1nc2cc(-c3cc[nH]c3)sc2c(=O)[nH]1` [Compound 65, (S)-2-(1-amino-2-methylpropyl)-6-(1H-pyrrol-3-yl)thieno[3,2-d]pyrimidin-4(3H)-one hydrochloride], for which the IC50 in test [1] is over 10000 nM. The compound further yielded a 50% growth inhibitory concentration (GI50) in test [2] of over 10000 nM.

As to `C[C@H](N)c1nc2cc(-c3ccncc3F)sc2c(=O)[nH]1` [Compound 21, (S)-2-(1-aminoethyl)-6-(3-fluoropyridin-4-yl)thieno[3,2-d]pyrimidin-4(3H)-one hydrochloride], the half-maximal inhibitory concentration (IC50) in test [1] lay in the range of 100 to 1000 nM. In test [2], this compound had a GI50 of 100 to 1000 nM.

`Cc1cc(-c2cc3nc([C@@H](N)C(C)C)[nH]c(=O)c3s2)ccn1` [Compound 7b, (S)-2-(1-amino-2-methylpropyl)-6-(2-methylpyridin-4-yl)thieno[3,2-d]pyrimidin-4(3H)-one hydrochloride] showed a concentration for 50% growth inhibition (GI50) in test [2] of 1000 to 10000 nM.

Take `CC(C)[C@H](N)c1nc2cc(-c3cc[nH]n3)sc2c(=O)[nH]1` [Compound 7c, (S)-2-(1-amino-2-methylpropyl)-6-(1H-pyrazol-3-yl)thieno[3,2-d]pyrimidin-4(3H)-one hydrochloride]: the IC50 in test [1] lay within 1000 to 10000 nM. The compound also came in with a GI50 in test [2] of over 10000 nM.

On to `CC(C)[C@@H](N)c1nc2cc(-c3ccncc3F)sc2c(=O)[nH]1` [Compound 29, (R)-2-(1-amino-2-methylpropyl)-6-(3-fluoropyridin-4-yl)thieno[3,2-d]pyrimidin-4(3H)-one hydrochloride], for which the IC50 in test [1] was 1000 to 10000 nM. The GI50 in test [2] is 1000 to 10000 nM.

`CC[C@H](N)c1nc2cc(-c3ccnc(F)c3)sc2c(=O)[nH]1` [Compound 13a, (S)-2-(1-aminopropyl)-6-(2-fluoropyridin-4-yl)thieno[3,2-d]pyrimidin-4(3H)-one hydrochloride]: the 50% growth inhibitory concentration (GI50) in test [2] was 100 to 1000 nM.

With `CC(C)[C@H](N)c1nc2cc(-c3cnoc3)sc2c(=O)[nH]1` [Compound 7e, (S)-2-(1-amino-2-methylpropyl)-6-(isoxazol-4-yl)thieno[3,2-d]pyrimidin-4(3H)-one hydrochloride], the IC50 in test [1] was over 10000 nM. Besides, the 50% growth inhibitory concentration (GI50) in test [2] is over 10000 nM.

Take `CN[C@H](c1nc2cc(-c3ccnc(F)c3)sc2c(=O)[nH]1)C(C)C` [Compound 36, (S)-6-(2-fluoropyridin-4-yl)-2-(2-methyl-1-(methylamino)propyl)thieno[3,2-d]pyrimidin-4(3H)-one hydrochloride]: the GI50 in test [2] lay within 1000 to 10000 nM.

`CC(C)[C@H](N)c1nc2cc(N3CCNCC3)sc2c(=O)[nH]1` [Compound 67, (S)-2-(1-amino-2-methylpropyl)-6-(piperazin-1-yl)thieno[3,2-d]pyrimidin-4(3H)-one hydrochloride]: in test [1], the IC50 fell in the range of 1000 to 10000 nM. Also, the GI50 in test [2] is over 10000 nM.

As to `CC(C)[C@H](N)c1nc2cc(-c3ccncn3)sc2c(=O)[nH]1` [Compound 53, (S)-2-(1-amino-2-methylpropyl)-6-(pyrimidin-4-yl)thieno[3,2-d]pyrimidin-4(3H)-one hydrochloride], the IC50 in test [1] fell in the range of 100 to 1000 nM. Moreover, the GI50 in test [2] is 100 to 1000 nM.
